Data as given in patent US20050281890A1 (priority 2004, published 2005).
Where two headings read alike, the source gives them in different places.

Tests used:
VEGF mRNA = settings: 1.25 micromole/wound, once daily, days 0-4; wound-edge tissue
Protocol: (§1) FIG. 4. […] Paired excisional wounds (FIG. 2) were either treated with placebo saline or H2O2 (1.25 micromole/wound, days0-4, once daily). Wound-edge tissue was collected at indicated times after wounding. A. Ribonuclease protection assay (RPA) showing kinetics of angiogenesis-related mRNA expression in a placebo-treated wound. […] C. Blood flow imaging of wounds was performed non-invasively using a Laser Doppler blood flow imaging device. Images reflecting the blood flow (right panel) and a digital photo (region of interest; left panel) from post-heal tissue are shown. Data i.e., mean±SD of the blood flow is presented (bar graph). The mean represents the arithmetic mean of all valid blood flow values for pixels within the region of interest.
(§2) Paired excisional wounds were either treated with placebo saline or H2O2 (1.25 micromole/wound, days 0-4, once daily). Wound-edge tissue was collected at indicated times after wounding.

Flt-1 mRNA = settings: 1.25 micromole/wound, once daily, days 0-4; wound-edge tissue
Protocol: as §1, §2

CD31 = settings: 1.25 micromole/wound, days 0-4; day 8 post-wounding; vs control
Protocol: as §1, §2

wound blood flow = settings: 1.25 micromole/wound, days 0-4, once daily; post-heal tissue; vs placebo saline
Protocol: as §1, §2
Images reflecting the blood flow (right panel) and a digital photo (region of interest; left panel) from post-heal tissue are shown. […] The mean represents the arithmetic mean of all valid blood flow values for pixels within the region of interest.

[1] = tested on: 8×16-mm full-thickness excisional wounds; settings: for wound closure: p<0.05
Protocol: FIG. 3. […] Two 8×16 mm full-thickness excisional wounds (inset) were placed on the dorsal skin of C57BL/6 male mice (8 wk old). […] For determination of surface microflora, wounds (treated with either 1.25 micromole H2O2/wound, open bar, or saline, closed bar) were swabbed (24-48 h post wounding) for 20 sec with an alginate-tipped applicator. Quantitative assessment of surface bacterial load was performed. For deep tissue wound microflora, 48 h after wounding eschar tissue was removed, wound bed tissue underneath eschar was sampled and quantitative assessment of bacterial load was performed. Values shown represent mean±SD of CFU of four observations. C.
Briefly, two 8×16-mm full-thickness excisional wounds (FIG. 3, insets) were placed on the dorsal skin of C57BL/6 male mice (8 weeks old). Each of the two wounds was topically treated either with H2O2 or saline.

[2] = tested on: focal adhesion kinase (FAK); settings: wound-edge tissue, 1.25 micromole/wound, 30 minutes after wounding
Protocol: Human microvascular endothelial cells (HMEC-1) were treated with H2O2 for indicated dose and duration. Phosphorylation of FAK was detected using Western blot and phosphorylation site-specific antibodies against FAK. Native FAK or β-actin was blotted to show equal loading. […] B. Kinetics of site-specific activation phophorylation of FAK in HMEC cells following H2O2 (0.1 mM) treatment. […] Paired excisional wounds (FIG. 2) were either treated with placebo saline or H2O2 (1.25 micromole/wound). Wound-edge tissue was collected 30 min after wounding. FAK phosphorylation in wound edge tissue was determined using Western blot. Data from three animals (#1-#3) are shown.
In FIG. 5C, paired excisional wounds were either treated with placebo saline or H2O2 (1.25 micromole/wound). Wound-edge tissue was collected 30 minutes after wounding. FAK phosphorylation in wound edge tissue was determined using Western blot. Data from three animals (#1-#3) are shown.

[3] = tested on: focal adhesion kinase (FAK); settings: HMEC-1 microvascular endothelial cells; various doses, 0.1 mM for kinetics
Protocol: Human microvascular endothelial cells (HMEC-1) were treated with H2O2 for indicated dose and duration. Phosphorylation of FAK was detected using Western blot and phosphorylation site-specific antibodies against FAK. Native FAK or β-actin was blotted to show equal loading. A. Effect of various dose of H2O2 treatment on phosphorylation (Ty 925) state of FAK. B. Kinetics of site-specific activation phophorylation of FAK in HMEC cells following H2O2 (0.1 mM) treatment.
Human microvascular endothelial cells (HMEC-1) were treated with H2O2 for indicated dose and duration. Phosphorylation of FAK was detected using Western blot and phosphorylation site-specific antibodies against FAK. Native FAK or β-actin was blotted to show equal loading.

keratin 14 = settings: p47phox knockout mice; 1.25 micromoles/wound, days 0-4; day 18 post-wounding, after closure
Protocol: Two excisional wounds (FIG. 2) were-laced on the dorsal skin of 8 wk old C57BL/6, MCP-1 or p47phox KO mice. Each of the two wounds was treated with either saline or H2O2 (1.25 micromoles/wound; days 0-4). […] C. […] D. Keratin 14 (green fluorescence) expression in skin of p47phox KO mice harvested from wound sites after closure on day 18 post-wounding.
Briefly, two excisional wounds were placed on the dorsal skin of eight-week-old C57BL/6, MCP-1 or p47^phox knockout mice. Each of the two wounds was treated with either saline or H2O2 (1.25 micromoles/wound; days 0-4).

OO [H2O2, hydrogen peroxide]
wound-induced VEGF mRNA expression (VEGF mRNA): further augmented
wound-induced Flt-1 mRNA expression (Flt-1 mRNA): further augmented
vascularization (CD31 stain) (CD31): better vascularization
blood flow (wound blood flow): increased blood flow
tissue damage / survival ([1]; 62.5 micromoles/wound (0.025 ml of 7.5% solution), once on day 0): caused necrotic tissue damage and severe injury, leading to death of the mice
wound closure ([1]; high dose 25 micromoles/wound (0.025 ml of 3% solution), once daily days 0-4, compared to low dose 1.25 micromoles/wound): adversely affected closure
wound closure ([1]; low-dose 1.25 micromoles/wound (0.025 ml of 0.15% solution), topical, once daily, days 0-4, vs placebo saline side): facilitated closure moderately
phosphorylation of FAK [2]: Induced Phosphorylation
phosphorylation of FAK [3]: Induced Phosphorylation
keratin 14 expression (keratin 14): comparable to normal skin
